We go through two molecules from patent publication US11938110B2, “Use of verapamil for the treatment of SARS-Cov-2 induced COVID-19” (priority 2020, dated 2024).

For data set [1], the system named is COVID-19 patients with hypertension. The following applies: oral administration; cited from earlier work.
Data set [2] has as its system SARS-COV-2 (USA-WA1/2020). The settings on record: Huh7 cells, MOI 0.1, 6.25, 12.5, 25 and 50 uM, compared to DMSO, 48 hours after infection.
Data set [3] relates to patients with Chronic obstructive pulmonary disease (COPD). The following applies: nasal spray.

Each structure is given as a SMILES string. Where a name gives a salt, the structure may show the parent alone.

For the molecule `CCOC(=O)C1=C(COCCN)NC(C)=C(C(=O)OC)C1c1ccccc1Cl` (stereo not shown) [amlodipine besylate], the “case fatality rate of patients with hypertension” value in data set [1] is “distinctly reduced”.
Take `COc1ccc(CCN(C)CCCC(C#N)(c2ccc(OC)c(OC)c2)C(C)C)cc1OC` (stereo not shown) [verapamil hydrochloride]: the “toxicity against Huh7 cells” value in the data set with Huh7 cells is given as “no significant toxicity”. Moreover, in data set [2], the “viral RNA in the supernatant” value is “dose-dependent reduction”. For the same molecule, in data set [3], the blood oxygen pressure entry is “improved” and the “correction of blood pH” value is “improved”. Also, in data set [3] (after inhalation), the “oxygen saturation after inhalation” value turned out to be 95.75±14.57. For the same molecule, the “oxygen saturation before inhalation” value in data set [3] (baseline) stood at 91.2±12.15.
